Experimental data reported in patent publication US11028427B2, “Systems and methods for proteomic activity analysis using DNA-encoded probes” (priority 2015, dated 2021).

What was measured:
PKA = PKA (Homo sapiens, UniProt P17612); assay: PKA peptide substrate kcat/Km comparison; assay type: biochemical
Excerpt: This extracellular PKA (ecPKA) and other ectokinase activities have recently garnered interest as useful cancer markers. However, the low levels of activity present challenges for detection using conventional methods. Conventional techniques to detect ecPKA in patient samples have relied exclusively on radioactive assays; however, exposure to radioactivity is problematic for those performing the assays, as is the cumbersome amount of paperwork and red tape associated obtaining approval for the use of radioactive assays and the disposal of radioactive waste. However, the PKA level in the serum of healthy individuals has been estimated at about 3 pM, which is below other conventional assay detection limits and, thus, problematic. Using the techniques described herein, a DNA-peptide substrate probe was synthesized based on the highly specific protein inhibitor for PKA—protein kinase inhibitor (PKI)—with the sequence […]. This peptide has about a 100-fold greater kcat/Km than the RRFSL peptide for PKA and provided a significant increase (e.g., a 100-fold) in assay sensitivity. Accordingly, the method 300 for detecting proteomic activity using DNA-encoded probes could provide sensitivity for detection of PKA activity in the bloodstream of a subject to accurately identify upregulation, for example, of ecPKA, which can be indicative of cancer.

[1] = test system: caspase 3 in lysates from HeLa cells; assay: Caspase 3 activity in HeLa cell lysates with DNA-encoded probe, qPCR; assay type: cell-based; conditions: HeLa cell lysates with vs without staurosporine treatment to induce apoptosis
[2] = molecular target: Biotinylated B. CAII immobilized on magnetic beads (Bos taurus, UniProt P00921); assay: Enrichment of ligands via solid-phase affinity pulldown, qPCR; assay type: binding, bovine; conditions: for Enrichment (fold change relative to non-ligand (Bz) DNA construct): Solid Phase Affinity Pull down
Excerpt: To prepare constructs for test selections, two CAII ligands and a non-ligand control (FIG. 17) were synthesized on a 5′-amine-modified, 40-mer oligonucleotide, which contained a PEG spacer between two 20-mer sequences as previously described. Using these oligos as primers in a PCR with unique 100-mer templates gave 100-mer dsDNA products tethered to the ligand-containing 20-mer ssDNA. DNA templates assigned to each ligand 1302 contained a unique, internal 20-mer sequence for use as a specific priming site to enable qPCR analysis of ligand enrichments. A mock library was then prepared by mixing ligand constructs GL-CBS and D-CBS at 0.1 nM each with an excess of control, non-ligand construct (Bz) (10 nM).
Using this mixture, test selections were conducted using the crosslinking approach with the sulfonyl fluoride oligo or using a traditional solid-phase selection with CAII immobilized on magnetic beads.
Biotinylated B. CAII (1.2× based on magnetic bead capacity) was immobilized onto pre-washed Nanolink Streptavidin Magnetic Beads by incubating in 0.1 M sodium phosphate, pH 8.0, 0.25 M NaCl, 0.02% (v/v) Tween-20, 1.0 mg/mL tRNA, 10 μM BSA for 2 h at RT. The magnetic beads were then separated and supernatant removed. The CAII-bound magnetic beads were then washed with the above buffer three times and a premix of ligand-dsDNA and non-ligand-dsDNA (0.1 nM and 10 nM, respectively) in the above buffer (in the appropriate volume to give the desired effective protein concentration) was added and incubated at RT for 1.5 h. The magnetic beads were then separated and DNA supernatant removed. The CAII-bound magnetic beads were then washed with the above buffer five times, maintaining the same effective protein concentration in each wash. After the final wash, the magnetic beads were suspended in […] and heated at 95° C. for 5 min. qPCR analysis of the premix and magnetic bead elution was completed by comparison of CT standard curves of identical dsDNA constructs.

BSA [3] = molecular target: T1, BSA (Bos taurus, UniProt P02769); assay: Bio-layer interferometry analysis of binding to BSA; design: species or system bovine; conditions: BSA at 10 μM; data not shown
Method: (§1) This crosslinking likely reflects the propensity of BSA to bind to hydrophobic small molecules and potentially to sulfonamides specifically. Thus, this labeling may still be considered ligand-dependent.
DNA conjugates were purified on a Varian Pro Star HPLC system and analytical analysis on an Agilent 1100 series HPLC system, both using Agilent Microsorb-MV 300-5 C18 250×4.6 mm reverse phase columns. Analytical separations were performed using 100 mM triethylammonium acetate (TEAA), pH 5.5 in water (A) or 100 mM triethylammonium acetate in 90% MeCN (B) with a linear gradient from 5-60% B over 22 minutes. Purifications were performed using the previous or 0.75% (v/v) 1,1,1,3,3,3-hexafluoropropan-2-ol, and 10 μM EDTA to pH 7.0 with triethylamine in water (A) or 90% MeOH (B) with a linear gradient from 5-50% B over 22 minutes. ESI-MS analysis was completed using an ABSciex 4500 QTrap from fractions collected from HFIP-based HPLC purifications. MALDI analysis was completed on an Applied Biosystems Voyager DE PRO instrument operated by the Purdue University Campus-Wide Mass Spectrometry Center after TEAA-based purification, ethanol precipitation, and ZipTip cleanup. On-DNA ligand dissociation constants were determined using a ForteBio Octet Red384. […] All gel images were recorded by a GE Healthcare Typhoon Trio+ with gel band quantifications determined using ImageJ software.

biotinylated B. CAII = biotinylated B. CAII (Bos taurus, UniProt P00921); assay: Enrichment of ligands via crosslinking (SDS + stringent washes), qPCR; assay type: binding, bovine; conditions: 1 μM CAII
BSA [4] = molecular target: T1, BSA; assay: Crosslinking to BSA in reactions lacking the target protein, SDS-PAGE; assay type: binding, bovine; conditions: reactive group phenyl azide (5); reactions that lacked the target protein
Method: as §1
Photocrosslinking was performed as described above, except the system was allowed to incubate with both the ligand-ssDNA and reactive group-ssDNA′ for 30 minutes at RT. Irradiation was completed by exposure to a 4W 356 nm UV light source at 4° C. for 1 hour, quenched by the addition 6×SDS-loading buffer, and directly analyzed by SDS-PAGE. Gels were imaged immediately for FAM fluorescence and then Coomassie stained.

Sequence of Biotinylated B. CAII immobilized on magnetic beads (P00921 whole entry): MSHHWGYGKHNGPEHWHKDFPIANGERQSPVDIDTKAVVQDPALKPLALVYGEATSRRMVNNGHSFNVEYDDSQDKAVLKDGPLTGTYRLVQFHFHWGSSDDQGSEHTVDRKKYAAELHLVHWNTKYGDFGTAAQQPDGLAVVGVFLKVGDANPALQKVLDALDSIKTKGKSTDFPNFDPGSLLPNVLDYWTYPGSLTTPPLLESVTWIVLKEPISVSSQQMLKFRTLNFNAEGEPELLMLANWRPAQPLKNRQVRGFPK
Sequence of biotinylated B. CAII (P00921 whole entry): as above
T1 sequence (P02769 25-607): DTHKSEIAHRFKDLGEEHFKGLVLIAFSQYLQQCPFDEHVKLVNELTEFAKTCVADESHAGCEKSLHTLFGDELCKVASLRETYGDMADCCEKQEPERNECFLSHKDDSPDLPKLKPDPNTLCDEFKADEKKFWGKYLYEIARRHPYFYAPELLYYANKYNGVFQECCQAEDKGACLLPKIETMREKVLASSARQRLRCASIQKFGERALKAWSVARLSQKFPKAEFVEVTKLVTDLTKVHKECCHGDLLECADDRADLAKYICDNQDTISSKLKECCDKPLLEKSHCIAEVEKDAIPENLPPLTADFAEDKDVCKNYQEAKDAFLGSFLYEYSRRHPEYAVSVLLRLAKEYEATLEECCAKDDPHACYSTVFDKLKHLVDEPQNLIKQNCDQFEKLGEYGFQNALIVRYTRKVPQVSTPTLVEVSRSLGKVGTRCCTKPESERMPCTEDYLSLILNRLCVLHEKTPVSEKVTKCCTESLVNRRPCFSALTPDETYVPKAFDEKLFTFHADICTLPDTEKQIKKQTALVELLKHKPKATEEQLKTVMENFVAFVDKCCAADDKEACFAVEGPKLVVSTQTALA

GRTGRRNSI
kcat/Km relative to the RRFSL peptide (PKA): ~100 fold

CN[C@@H]1C[C@H]2O[C@@](C)([C@@H]1OC)n1c3ccccc3c3c4c(c5c6ccccc6n2c5c31)C(=O)NC4 [staurosporine]
Increase in caspase activity [1]: ~6 fold

glycylleucine carboxybenzylsulfonamide [GL-CBS]
Overall enrichment in solid-phase selection compared to crosslinking selection (lower) ([2]; 1 μM CAII): 20 fold
Recovery in solid-phase selection compared to crosslinking selection (greater) ([2]; 1 μM CAII): approximately 5 fold
Enrichment (fold change relative to non-ligand (Bz) DNA construct) ([2]; 1 μM CAII): 720 fold
Enrichment (fold change relative to non-ligand (Bz) DNA construct) ([2]; 17 μM CAII (estimated)): 610 fold
Binding to BSA (BSA [3]): did not indicate binding
Enrichment (fold change relative to non-ligand (Bz) DNA construct) (biotinylated B. CAII; Without X-linking (3'-OH ssDNA)): 22 fold
Enrichment (fold change in concentration of ligand-DNA construct relative to non-ligand (Bz) DNA construct) (biotinylated B. CAII; X-linking with 3 (sulfonyl fluoride)): 17,000 fold
BSA crosslinking (BSA [4]): significant levels of BSA crosslinking
